# Data: patent publication US5082838A, “Sulfur-containing fused pyrimidine derivatives, their production and use” (Takeda Chemical Industries, Ltd., priority 1989, dated 1992)
# Legend:
# endothelin constriction = assay: Inhibitory effects on endothelin induced contraction in porcine coronary arteries (LAD rings); assay type: cell-based; details: Sus scrofa, endothelin 3×10^-9 M, read-out: Inhibition (%) of maximum contraction by endothelin
# Procedure: Inhibitory Effects of the Compounds on […] Induced Contraction in Porcine Coronary Arteries
# Ring preparation of porcine left arterior descending coronary arteries (LAD) were suspended in 20 ml baths containing Krebs-Henseleit solutions at 37° C. gassed with 97% O2 -3% CO2. Endothelin (3×10^-9 M) was added to the baths, and after the constriction reached the steady state, the compounds at concentrations of […] and 10^-5 M (Examples 45, 48 and 127) were added to the bath. Then, the relaxation activity was examined. The relaxation activity of the compounds was expressed as % inhibition from the maximum contraction by endothelin.
# [1] = system: Endothelin Induced Pressor and Depressor Responses; assay: Inhibitory effects on endothelin induced pressor and depressor responses in conscious beagle dogs; assay type: in vivo
# Excerpt: Inhibitory Effects on Endothelin Induced Pressor and Depressor Responses in Conscious Beagle Dogs
# Using 10 male beagles (12-14 kg, 8-10 months old), a polyethylene cannula (PEG-100) was inserted into each of the left femoral artery and vein of each beagle after pentobarbital anesthesia. The experiment was started from 3 to 7 days after the operation. The cannula was connected to a pressure transducer to measure the systemic blood pressure. The endothelin antagonistic activity of the compound obtained in Example 65 was examined, taking the depressor and pressor responses due to the intravenous administration of endothelin as its indication. […]
# [2] = system: Ischemic and Reperfused Rat Heart; assay: Depressing effect against evolution of infarct size in ischemic and reperfused rat heart; assay type: in vivo, Male Wistar rats; details: 100 mg/kg p.o. 2 hours before occlusion and 5 hours after reperfusion; n = 5; control 36.7 ± 1.4 (12); P < 0.01
# Procedure: Depressing Effect Against Evolution of Infarct Size in Ischemic and Reperfused Rat Heart
# Male Wistar rats were medianly dissected under pentobarbital anesthesia, and left anterior descending coronary artery was occluded at its origin for 1 hour, followed by resumption of Blood flowing. The chest was closed 30 to 60 minutes after the reperfusion, and the rates were kept under conscious state. After 24 hours, the rats were anesthetized again and the hearts were excised. The left ventricle of each heart was divided into six parts, and these divided parts were stained with 1% triphenyltetrazolium chloride solution at 37° C. for 15 minutes. Then, infarcted portions were weighed.
# The compound obtained in Example 127 was orally administered in a dose of 100 mg/kg as a gum arabic suspension 2 hours before the occlusion and 5 hours after the reperfusion.
# [3] = 1 mg/kg, i.v., 5 min after administration, n = 4
# [4] = 1 mg/kg, i.v., 1 hr after administration, n = 4
# [5] = 1 mg/kg, i.v., 2 hr after administration, n = 4
# [6] = 1 mg/kg, i.v., 4 hr after administration, n = 4
# [7] = 1 mg/kg, i.v., 6 hr after administration, n = 4
# [8] = 10 mg/kg, p.o., 1 hr after administration, n = 3
# [9] = 10 mg/kg, p.o., 2 hr after administration, n = 3
# [10] = 10 mg/kg, p.o., 4 hr after administration, n = 3
# [11] = 10 mg/kg, p.o., 8 hr after administration, n = 3
structure (smiles),measurement,setting,value
"CCCn1c(=O)c(-c2ccccc2)c2n(c1=O)CC=CS2 [Example 127, 9-Phenyl-7-propyl-4H,6H-pyrimido[6,1-b][1,3]thiazine6,8(7H)-dione]",inhibition at 10 µM,endothelin constriction; 10^-5 M,90%
same,inhibition at 1 µM,endothelin constriction; 10^-6 M,82.3%
same,% inhibition of Depressor Response,[1]; [3],86 ± 9%
same,% inhibition of Pressor Response,[1]; [3],100%
same,% inhibition of Depressor Response,[1]; [4],74 ± 11%
same,% inhibition of Pressor Response,[1]; [4],55 ± 7%
same,% inhibition of Depressor Response,[1]; [5],57 ± 10%
same,% inhibition of Pressor Response,[1]; [5],55 ± 7%
same,% inhibition of Depressor Response,[1]; [6],31 ± 13%
same,% inhibition of Pressor Response,[1]; [6],38 ± 15%
same,% inhibition of Depressor Response,[1]; [7],30 ± 8%
same,% inhibition of Pressor Response,[1]; [7],32 ± 10%
same,% inhibition of Depressor Response,[1]; [8],34 ± 9%
same,% inhibition of Pressor Response,[1]; [8],37 ± 10%
same,% inhibition of Depressor Response,[1]; [9],81 ± 10%
same,% inhibition of Pressor Response,[1]; [9],85 ± 10%
same,% inhibition of Depressor Response,[1]; [10],67 ± 12%
same,% inhibition of Pressor Response,[1]; [10],76 ± 12%
same,% inhibition of Depressor Response,[1]; [11],50 ± 0%
same,% inhibition of Pressor Response,[1]; [11],43 ± 4%
same,ratio of the weight of the infarcted region to the weight of the left ventricles,[2],26.8 ± 3.1%
